Tests used:
Assay type in all cases: in vivo
[1] = tested on: Alopecurus myosuroides (ALOMY); experiment: Pre-emergence herbicidal glasshouse test on Alopecurus myosuroides; details: for PRE Application ALOMY herbicidal damage (five point scale): pre-emergence, 1000 g/h, evaluated after 13 days
Method in brief: (§1)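 Scored on a five-point scale (1 = 0-19% to 5 = 80-100% damage) 13 days after treatment. Application rate 1000 g/h in acetone/water (50:50) containing 0.5% Tween 20, sprayed one day post-sowing for pre-emergence or eight days for post-emergence; glasshouse at 24/16° C, 14 h light, 65% humidity.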

Setaria faberi (SETFA) [2] = experiment: Pre-emergence herbicidal glasshouse test on Setaria faberi; details: for PRE Application SETFA herbicidal damage (five point scale): pre-emergence, 1000 g/h, evaluated after 13 days
Method in brief: as §1

[3] = tested on: Echinochloa crus-galli (ECHCG); experiment: Pre-emergence herbicidal glasshouse test on Echinochloa crus-galli; details: for PRE Application ECHCG herbicidal damage (five point scale): pre-emergence, 1000 g/h, evaluated after 13 days
Method in brief: as §1

Solanum nigrum (SOLNI) [4] = experiment: Pre-emergence herbicidal glasshouse test on Solanum nigrum; details: for PRE Application SOLNI herbicidal damage (five point scale): pre-emergence, 1000 g/h, evaluated after 13 days
Method in brief: as §1

[5] = tested on: Amaranthus retoflexus (AMARE); experiment: Pre-emergence herbicidal glasshouse test on Amaranthus retoflexus; details: for PRE Application AMARE herbicidal damage (five point scale): pre-emergence, 1000 g/h, evaluated after 13 days
Method in brief: as §1

[6] = tested on: Ipomoea hederacea (IPOHE); experiment: Pre-emergence herbicidal glasshouse test on Ipomoea hederacea; details: for PRE Application IPOHE herbicidal damage (five point scale): pre-emergence, 1000 g/h, evaluated after 13 days
Method in brief: as §1

[7] = tested on: Alopecurus myosuroides (ALOMY); experiment: Post-emergence herbicidal glasshouse test on Alopecurus myosuroides; details: for POST Application ALOMY herbicidal damage (five point scale): post-emergence, 1000 g/h, evaluated after 13 days
Method in brief: as §1

Setaria faberi (SETFA) [8] = experiment: Post-emergence herbicidal glasshouse test on Setaria faberi; details: for POST Application SETFA herbicidal damage (five point scale): post-emergence, 1000 g/h, evaluated after 13 days
Method in brief: as §1

[9] = tested on: Echinochloa crus-galli (ECHCG); experiment: Post-emergence herbicidal glasshouse test on Echinochloa crus-galli; details: for POST Application ECHCG herbicidal damage (five point scale): post-emergence, 1000 g/h, evaluated after 13 days
Method in brief: as §1

Solanum nigrum (SOLNI) [10] = experiment: Post-emergence herbicidal glasshouse test on Solanum nigrum; details: for POST Application SOLNI herbicidal damage (five point scale): post-emergence, 1000 g/h, evaluated after 13 days
Method in brief: as §1

[11] = tested on: Amaranthus retoflexus (AMARE); experiment: Post-emergence herbicidal glasshouse test on Amaranthus retoflexus; details: for POST Application AMARE herbicidal damage (five point scale): post-emergence, 1000 g/h, evaluated after 13 days
Method in brief: as §1

[12] = tested on: Ipomoea hederacea (IPOHE); experiment: Post-emergence herbicidal glasshouse test on Ipomoea hederacea; details: for POST Application IPOHE herbicidal damage (five point scale): post-emergence, 1000 g/h, evaluated after 13 days
Method in brief: as §1

SMILES	PRE Application ALOMY herbicidal damage (five point scale) [1]	PRE Application SETFA herbicidal damage (five point scale) (Setaria faberi (SETFA) [2])	PRE Application ECHCG herbicidal damage (five point scale) [3]	PRE Application SOLNI herbicidal damage (five point scale) (Solanum nigrum (SOLNI) [4])	PRE Application AMARE herbicidal damage (five point scale) [5]	PRE Application IPOHE herbicidal damage (five point scale) [6]	POST Application ALOMY herbicidal damage (five point scale) [7]	POST Application SETFA herbicidal damage (five point scale) (Setaria faberi (SETFA) [8])	POST Application ECHCG herbicidal damage (five point scale) [9]	POST Application SOLNI herbicidal damage (five point scale) (Solanum nigrum (SOLNI) [10])	POST Application AMARE herbicidal damage (five point scale) [11]	POST Application IPOHE herbicidal damage (five point scale) [12]	other results
Cn1ncc(-n2ccc(C(F)(F)F)cc2=O)c(O)c1=O [Compound 1.078]	2 (2=20-39% damage)	5 (5=80-100% damage)	5 (5=80-100% damage)	5 (5=80-100% damage)	5 (5=80-100% damage)	2 (2=20-39% damage)	1 (1=0-19% damage)	5 (5=80-100% damage)	5 (5=80-100% damage)	5 (5=80-100% damage)	5 (5=80-100% damage)	4 (4=60-79% damage)	
CN(C)c1c(Cl)ccc(-c2cnn(C)c(=O)c2O)c1F [Compound 1.064]	1 (1=0-19% damage)	1 (1=0-19% damage)	1 (1=0-19% damage)	1 (1=0-19% damage)	1 (1=0-19% damage)	1 (1=0-19% damage)	1 (1=0-19% damage)	1 (1=0-19% damage)	1 (1=0-19% damage)	5 (5=80-100% damage)	5 (5=80-100% damage)	4 (4=60-79% damage)	
Cc1ccc(Cl)cc1-n1c(-c2cccc(F)c2)ncc(-c2cnn(C)c(=O)c2O)c1=O [Compound 10.004]													PRE Application ALOMY ([1]; pre-emergence application, Alopecurus myosuroides, damage score 1-5): 1 (1=0-19% damage); PRE Application SETFA (Setaria faberi (SETFA) [2]; pre-emergence application, Setaria faberi, damage score 1-5): 1 (1=0-19% damage); PRE Application ECHCG ([3]; pre-emergence application, Echinochloa crus-galli, damage score 1-5): 1 (1=0-19% damage); PRE Application SOLNI (Solanum nigrum (SOLNI) [4]; pre-emergence application, Solanum nigrum, damage score 1-5): 1 (1=0-19% damage); PRE Application AMARE ([5]; pre-emergence application, Amaranthus retoflexus, damage score 1-5): 2 (2=20-39% damage); PRE Application IPOHE ([6]; pre-emergence application, Ipomoea hederacea, damage score 1-5): 1 (1=0-19% damage); POST Application ALOMY ([7]; post-emergence application, Alopecurus myosuroides, damage score 1-5): 1 (1=0-19% damage); POST Application SETFA (Setaria faberi (SETFA) [8]; post-emergence application, Setaria faberi, damage score 1-5): 3 (3=40-59% damage); POST Application ECHCG ([9]; post-emergence application, Echinochloa crus-galli, damage score 1-5): 4 (4=60-79% damage); POST Application SOLNI (Solanum nigrum (SOLNI) [10]; post-emergence application, Solanum nigrum, damage score 1-5): 5 (5=80-100% damage); POST Application AMARE ([11]; post-emergence application, Amaranthus retoflexus, damage score 1-5): 5 (5=80-100% damage); POST Application IPOHE ([12]; post-emergence application, Ipomoea hederacea, damage score 1-5): 4 (4=60-79% damage)
Cn1ncc(-c2ccc(C(F)(F)F)cc2S(=O)(=O)Cc2ccccc2)c(O)c1=O [Compound 2.047]	1 (1=0-19% damage)	1 (1=0-19% damage)	5 (5=80-100% damage)	4 (4=60-79% damage)	2 (2=20-39% damage)	1 (1=0-19% damage)	3 (3=40-59% damage)	3 (3=40-59% damage)	5 (5=80-100% damage)	5 (5=80-100% damage)	5 (5=80-100% damage)	4 (4=60-79% damage)	
COc1c(Cl)ccc(-c2cnn(C)c(=O)c2O)c1F [Compound 1.063]	1 (1=0-19% damage)	1 (1=0-19% damage)	1 (1=0-19% damage)	1 (1=0-19% damage)	1 (1=0-19% damage)	1 (1=0-19% damage)	1 (1=0-19% damage)	1 (1=0-19% damage)	1 (1=0-19% damage)	2 (2=20-39% damage)	3 (3=40-59% damage)	3 (3=40-59% damage)	
Cc1ccc(F)cc1-c1c(C(F)(F)F)ccn(-c2cnn(C)c(=O)c2O)c1=O [Compound 7.007]	5 (5=80-100% damage)	5 (5=80-100% damage)	5 (5=80-100% damage)	5 (5=80-100% damage)	5 (5=80-100% damage)	4 (4=60-79% damage)	5 (5=80-100% damage)	5 (5=80-100% damage)	5 (5=80-100% damage)	5 (5=80-100% damage)	5 (5=80-100% damage)	5 (5=80-100% damage)	
CS(=O)(=O)c1cc(C(F)(F)F)ccc1-c1cnn(C2CC2)c(=O)c1O [Compound 2.015]	5 (5=80-100% damage)	5 (5=80-100% damage)	5 (5=80-100% damage)	5 (5=80-100% damage)	5 (5=80-100% damage)	5 (5=80-100% damage)	5 (5=80-100% damage)	5 (5=80-100% damage)	5 (5=80-100% damage)	5 (5=80-100% damage)	5 (5=80-100% damage)	5 (5=80-100% damage)	
CC(C)Oc1nn(C)c(=O)c(O)c1-c1ccc(C(F)(F)F)cc1S(C)(=O)=O [Compound 2.052]	4 (4=60-79% damage)	3 (3=40-59% damage)	5 (5=80-100% damage)	5 (5=80-100% damage)	5 (5=80-100% damage)	4 (4=60-79% damage)	5 (5=80-100% damage)	5 (5=80-100% damage)	5 (5=80-100% damage)	5 (5=80-100% damage)	5 (5=80-100% damage)	5 (5=80-100% damage)	

— US9693556B2, “Herbicidal pyridazinone derivatives” (SYNGENTA LIMITED, priority 2011, dated 2017)
